Key:
Format in all cases: cell-based, human
[1] = tested on: U87-MG glioblastoma cells; assay: MVM infection markers (NS1, Pp53-S15, vDNA) by IF-confocal, Southern and western blot in U87-MG
Description: Immunofluorescence analyses were performed on neurospheres of hGSCs (human glioblastoma stem cells) and established adherent cell lines as follows: • Neurosphere staining. The cell spheres were fixed for 30 minutes with paraformaldehyde (PFA) 4%, then permeabilized for 10 minutes at room temperature with 0.1% Triton X-100 (Merck) in PBS, and blocked by incubating 20 minutes with 0.1% Triton X-100 and 10% fetal bovine serum (Sigma) in PBS. Neurospheres were incubated in the same buffer with the primary antibodies indicated in the figures for 1 h at 37° C., and finished by four five-minute PBS washes. Then neurospheres were incubated with the secondary antibodies at appropriate concentrations in the same buffer and conditions, and finally stained with DAPI for half an hour and mounted embedding at 37° C. in 0.8% agarose-LGT prepared in PBS. Embedded neurospheres were applied as 200 microliters drops on pre-cooled large (2×3 cm) coverslips and stored at 4° C. in the dark until confocal analysis. • Adherent cells. The cell lines were seeded on coverslips, treated as indicated in the figures and fixed for 10 minutes with 4% paraformaldehyde. Staining with antibodies was carried out essentially as described above for the neurospheres. Cells were mounted with Fluoromount G (Southern Biotech). Preparations were kept at least 16 h at room temperature in the dark before observation under a microscope. • Analysis of virus replication by FISH. This method was used to determine the degree of replication of the parvovirus MVM genome. The probe used was a mixture of three DNA oligonucleotides labeled at the 3′ terminal end with the Cy5 fluorophore, and complementary to different sequences of the MVM genome. […] The images were processed with Adobe Photoshop CS5 programs (Adobe Systems Incorporated) and ImageJ/FIJI (http://rsb.info.nih.gov/ij/) taking the same samples as a zero-signal reference without antibodies (auto-fluorescence control), or only with secondary antibodies. […]

[2] = tested on: U373-MG glioblastoma cells; assay: MVM infection markers (NS1, Pp53-S15, vDNA) by cytometry, IF-confocal and western blot in U373-MG
Description: In all the experiments, a minimum of 30,000 events per sample were acquired in a FACSCantoII cytometer (BD Biosciences), which were pre-selected by a region based on their size and complexity (FSC and SSC parameters, respectively) in order to exclude cellular debris and other contaminating particles. The CellQuest software (BD Biosciences) was used to acquire the events and the FlowJo software (Tree Star) was used to analyze the data. The cell cycle analysis was in accordance to [Gil-Ranedo, J., Hernando, E., Riolobos, L., Dominguez, C., Kann, M, and José M Almendral. 2015. The mammalian cell cycle regulates nuclear parvovirus capsid assembly. PlosPathogens, 11; 11 (6): e1004920]. For staining, cells were permeabilized with PBS+0.1% triton X-100 for 10 minutes at room temperature, then blocked with the same buffer supplemented with 1% FCS for 20 minutes. Cells were re-suspended in PBS (pH 7.2)+0.5% BSA and the primary antibodies indicated in the figures were added followed by 1 h stirring at 37° C. Cells were washed in PBS and the secondary antibodies were added and incubated similarly. Two further washes in PBS were made before analyzing the samples in the flow cytometer.
Immunofluorescence analyses were performed on neurospheres of hGSCs (human glioblastoma stem cells) and established adherent cell lines as follows: • Neurosphere staining. The cell spheres were fixed for 30 minutes with paraformaldehyde (PFA) 4%, then permeabilized for 10 minutes at room temperature with 0.1% Triton X-100 (Merck) in PBS, and blocked by incubating 20 minutes with 0.1% Triton X-100 and 10% fetal bovine serum (Sigma) in PBS. Neurospheres were incubated in the same buffer with the primary antibodies indicated in the figures for 1 h at 37° C., and finished by four five-minute PBS washes. Then neurospheres were incubated with the secondary antibodies at appropriate concentrations in the same buffer and conditions, and finally stained with DAPI for half an hour and mounted embedding at 37° C. in 0.8% agarose-LGT prepared in PBS. Embedded neurospheres were applied as 200 microliters drops on pre-cooled large (2×3 cm) coverslips and stored at 4° C. in the dark until confocal analysis. • Adherent cells. The cell lines were seeded on coverslips, treated as indicated in the figures and fixed for 10 minutes with 4% paraformaldehyde. Staining with antibodies was carried out essentially as described above for the neurospheres. Cells were mounted with Fluoromount G (Southern Biotech). Preparations were kept at least 16 h at room temperature in the dark before observation under a microscope. • Analysis of virus replication by FISH. This method was used to determine the degree of replication of the parvovirus MVM genome. The probe used was a mixture of three DNA oligonucleotides labeled at the 3′ terminal end with the Cy5 fluorophore, and complementary to different sequences of the MVM genome. Cells adhered and fixed in 4% paraformaldehyde were permeabilized for 10 minutes with 0.2% Triton X-100 (Merck) in PBS and equilibrated for 5 minutes at room temperature in 2×SSC (0.3 M NaCl; 30 mM Na2C6H5O7, pH 7) supplemented with 15% formamide. Hybridization was with 500 ng/ml of each oligonucleotide in FISH buffer (5×SSC, 0.5% SDS, 10% dextran sulfate, 50% formamide) for 2.5 hours at 37° C. The preparations were washed twice with 2×SSC, 15% formamide for 30 minutes. […]

[3] = tested on: U373-MG glioblastoma cells; assay: Clonogenic analysis of cell viability (colony formation) in U373-MG; settings: single agent: CisPt 1-hour treatment, or MVMp singly inoculated at two MOI
Description: Consequently, the CisPt dose effect on different MVMp life cycle parameters, and on p53 phosphorylation and functional signaling in U373-MG cells, was analyzed. For this, the U373-MG cells treated with Cis-Platinum doses (10-120 microM) for 1 hour at 37° C. were inoculated with MVMp to allow adsorption, and then of the infection was allowed to progress for 24 hours. Cells were sampled and processed for virus macromolecular markers and Pp53-S15 determinations.
We finally analyzed whether these MVM/CisPt cooperative effects impact cancer cells viability, and therefore whether they imply a therapeutic significance.

SMILES	p53 phosphorylation at the Ser15 residue ([1]; uninfected U87-MG cells, IF-confocal)	NS1 levels by western blot ([2]; MVMp infected U373-MG, 5 to 20 microM CisPt)	virus genome (vDNA) replication levels ([2]; MVMp infected U373-MG, IF-confocal, CisPt dose effect)	percentage of cells expressing NS1 and level of NS1 expression ([2]; MVMp infected U373MG, flow cytometry, combined treatment with single dose of CD versus simple infection)	Pp53-S15 levels ([2]; U373-MG, IF-confocal, 5-20 microM Cis-Pt, 1 hour, then MVMp 24 hours)	Pp53-S15 induction ([2]; U373MG, flow cytometry, single dose, also in treated non-infected cells)	percentage of NS1+ cells after drug pre-treatment ([1]; U87-MG treated with different Cis-Pt doses prior to MVMp infection)	MVMp genome replication (vDNA) after drug pre-treatment ([1]; U87-MG, Cis-Pt dose effect, MVMp infection)	cell viability (clonogenic assay) [3]
O=c1[nH]cc(F)c(=O)[nH]1 [5FU, 5-fluorouracil]	substantially increased	–	–	–	–	–	–	–	–
N.N.[Cl][Pt][Cl] [CisPt, Cisplatin]	–	increasing NS1 levels	benefitted from 10 microM CisPt but not from higher doses	highest increase	significant increase	generalized Pp53-S15 induction in all cells	very significant increase	benefitted from the 10 or 20 microM Cis-Pt treatment, but not from higher doses	progressively decreased the viability

Source: patent publication US20230285481A1, “TREATMENT OF CANCER HARBORING MUTATIONS IN THE TP53 GENE AND/OR POST-TRANSLATIONAL MODIFICATIONS IN THE P53 PROTEIN WITH PARVOVIRUSES” (UNIVERSIDAD AUTÓNOMA DE MADRID, priority 2018, published 2023)
